Several values for one entry are separate records, joined by “and”; a condition that tells them apart may be missing. Equal values may be shown once. Entries after “also recorded” stand apart in the source; their conditions may differ.
What was measured:
[1] = system: CYP-induced visceral pain; assay: Chronic administration in CYP-induced visceral pain in rats (Von Frey withdrawal threshold); type: in vivo, rat
Procedure: Cyclophosphamide, 75 mg/kg i.p. for 3 times, every 3rd day, was dissolved in distilled water and administered to animals by i.p. route (volume 5 mL/kg). Appropriate weight of Compd. 1 or Compd. 2 was dissolved in saline, all doses of test compounds were administered by oral gavage (volume 2 mL/kg).
On the day of the experiment, each rat was placed individually in a clear plastic testing box with a grid floor and allowed to acclimatize for at least 10 min. Visceral sensitivity in response to mechanical stimuli was determined using Von Frey monofilaments (1-2-4-8-15-26-60-100 g) applied in the lower abdominal area (close to the urinary bladder) and on both hind paws plantar surface (to evaluate referred pain).
Each Von Frey monofilament was applied 5 times at the level of abdomen and 3 times at the level of each paw, in an ascending order of strength at interval of 5 sec. A stimulus-induced response was considered positive when the paw was sharply withdrawn, paw licking occurred, or the animal flinched upon removal of the filament.
• before CYP administration (in order to acquire basal values) • after CYP administration and before treatment, to verify the pathology (in order to acquire pre-treatment values) • after chronic treatment, about 18 hours after last administration of Compd. 1 (in order to acquire post-treatment values). • after chronic treatment, 2 hours after the last administration of Compd. 1 (in order to acquire post-treatment values after chronic+acute administration)
Compd. 1 or vehicle was administered p.o. to animals twice daily (according to the pharmacokinetic profile of the compound) for 6 days, starting from 24 hours after last treatment with CYP, when painful symptoms were well established. Nociceptive hypersensitivity was evaluated about 18 hours after the last administration of Compd. 1 (or vehicle) in order to evaluate the effect of chronic administration, or a further dosage of compound was administered and evaluation carried out 2 hours thereafter, in order to compare with acute protocol, described in Example 1.

KC/GRO-α = KC/GRO-α plasma content after preventive treatment in CYP-induced cystitis model in rats; type: in vivo, rat; conditions: day 9; 20 mg/kg p.o. 12 hours before first CYP, then 7 mg/kg p.o. twice a day for 7 days
Procedure: The effect of chronic preventive administration of Compd. 1 on KC/GRO-α plasma content in a CYP-induced cystitis model in conscious rats was evaluated.
To elicit cystitis, rats received intraperitoneal (i.p.) injections of CYP (75 mg/Kg every third day for three times). A single high dose of Compd. 1 (20 mg/kg) was orally administered 12 hours before the first CYP treatment; subsequently Compd. 1 (7 mg/kg p.o.) was administered twice a day for 7 days (from day 1 to day 7 from the first CYP administration). The oral dose of 7 mg/kg of Compd. 1 was chosen on the basis of previous evaluations. Animals blood was collected at day 7 (the same day of the last CYP treatment) at day 8 (about 24 hrs after last CYP administration) and at day 9 (about 48 hrs after last CYP administration). Each experimental group was composed of 10 animals, 10 animals treated with CYP+vehicle compound, 10 animals treated with CYP+Compd. 1, and 10 animals (sham) treated with CYP vehicle+vehicle compound.
The same animal was subjected to 3 blood serial samplings in order to evaluate the time-course of inflammatory mediators content. After thawing and centrifuge to remove any aggregates and lipid residues that could interfere with the reading, the samples were evaluated through quantitative analysis of KC/GRO-α.

CYP-induced cystitis [2] = assay: Microscopic examination of urinary bladders after chronic preventive administration; type: in vivo, rat; conditions: 12 hours before and twice per day from first day of CYP for 7 days
Source text: At the end of the study, the urinary bladders were opened, placed in 10% buffered formalin and stored at room temperature until completion of hystomorphological analysis (see Example 6 below).
At the end of the efficacy study of chronic preventive administration, the urinary bladders were opened, placed in 10% buffered formalin and stored at room temperature until hystomorphological analysis.
Treatment with Compd. […] 1.

CYP-induced cystitis [3] = assay: Follow-up up to 10 days after discontinuation of treatment (body weight, survival); type: in vivo
[4] = system: CYP-induced urinary bladder cystitis; assay: Microscopic examination of urinary bladders after chronic administration (histology, immunohistochemistry); type: in vivo, rat
Source text: At the end of the efficacy study of chronic administration, the urinary bladders were opened, placed in 10% buffered formalin and stored at room temperature until hystomorphological analysis.
Treatment with Compd. […] The induced lesions consisted of apoptosis, erosions of the mucosa, mitoses of the mucosal cells, mucosal hyperplasia, infiltration of inflammatory cells and micro-hemorrhages. Caspase 3 and caspase 9 expression (markers of apoptosis) as well as Ki67 expression (marker for cell proliferation) were reduced in the group treated with Compd. 1.

[5] = system: CYP-induced visceral pain; assay: Acute administration in CYP-induced visceral pain in rats (Von Frey mechanical threshold); type: in vivo, rat
Procedure: Female Sprague Dawley rats (Crl:CD(SD)BR, 250-350 g) from Charles River Italy were used in these experiments. Animals were housed with free access to food and water and maintained on a forced 12 hours light-dark cycle at 22-24° C. for at least one week before the experiments were carried out. The animals were handled according to internationally accepted principles for care of laboratory animals (E.E.C. Council Directive 86/609, […]. 18, 1986). Cyclophosphamide, 75 mg/kg i.p. for 3 times, every 3rd day, was dissolved in distilled water and administered to animals by i.p. route (volume 5 mL/kg). Appropriate weight of Compd. 1 or Compd. 2 was dissolved in saline, all doses of test compounds were administered by oral gavage (volume 2 mL/kg). On the day of the experiment, each rat was placed individually in a clear plastic testing box with a grid floor and allowed to acclimatize for at least 10 min. Visceral sensitivity in response to mechanical stimuli was determined using Von Frey monofilaments (1-2-4-8-15-26-60-100 g) applied in the lower abdominal area (close to the urinary bladder) and on both hind paws plantar surface (to evaluate referred pain). Each Von Frey monofilament was applied 5 times at the level of abdomen and 3 times at the level of each paw, in an ascending order of strength at interval of 5 sec. A stimulus-induced response was considered positive when the paw was sharply withdrawn, paw licking occurred, or the animal flinched upon removal of the filament. Behavioral testing on animals was performed at 3 different times: • before CYP administration (in order to acquire basal values) • after CYP administration, before treatment with the test compound, to verify the pathology (in order to acquire pre-treatment values) • after CYP administration, after treatment (in order to acquire post-treatment values) […] The test was performed in blind. Compd. 1 and Compd. […]

[6] = 7 mg/kg twice daily p.o. for 6 days, about 18 hours after last administration
[7] = immunohistochemistry, versus CYP group

C[C@H](C(=O)O)c1ccc(Nc2nc(C(F)(F)F)cs2)cc1 [Compd. 1, (2S)-2-(4-{[4-(trifluoromethyl)-1,3-thiazol-2-yl]amino}phenyl) propanoic acid]
painful visceral symptoms in both evaluated areas ([1]; 7 mg/kg twice daily p.o. for 6 days plus one further dose, 2 hours following the last administration): fully abolished the painful visceral symptoms in both evaluated areas
nociceptive hypersensitivity in hind-paws plantar surface [1, 6]: completely reverses the nociceptive hypersensitivity in hind-paws plantar surface
withdrawal thresholds in the abdomen [1, 6]: almost complete recovery of withdrawal thresholds in the abdomen; also recorded: almost complete increase in withdrawal thresholds in the abdomen
GRO-α/KC blood levels (KC/GRO-α): significantly reduces GRO-α/KC blood levels at day 9
inflammatory, degenerative, proliferative and hemorrhagic lesions caused by CYP (CYP-induced cystitis [2]): clearly reduced the inflammatory, degenerative, proliferative and hemorrhagic lesions caused by CYP
survival (CYP-induced cystitis [3]; vehicle-treated 50%): 65%
body weight recovery (CYP-induced cystitis [3]; versus vehicle-treated animals): body weight recovery faster than vehicle-treated animals
inflammatory, degenerative and proliferative lesions of the urinary bladder ([4]; 7 mg/kg oral twice a day for 6 days after CYP): clearly reduced or reversed the inflammatory, degenerative and proliferative lesions
Incidence: Apoptosis epithelial cell, urinary bladder ([4]; animals of 10/group, 7 mg/kg oral twice a day for 6 days after CYP): 3/10 and 3
Caspase 3 and caspase 9 expression (markers of apoptosis) [4, 7]: reduced
Ki67 expression (marker for cell proliferation) [4, 7]: reduced; also recorded: lower grade of positivity
withdrawal thresholds, abdomen and hind paws ([5]; 1 mg/kg p.o., 2 hours after administration, versus pre-treatment): not significantly different from the pretreatment values
mechanical threshold, abdomen and hind paws ([5]; 3 mg/kg p.o., 2 hours after administration, versus pre-treatment): statistical significant increase of mechanical threshold in both the areas evaluated
mechanical threshold, abdomen and hind paws ([5]; 7 mg/kg p.o., 2 hours after administration, versus pre-treatment): statistical significant reduction of painful hypersensitivity in both the abdominal and plantar surface
mechanical threshold, abdomen and hind paws ([5]; 10 mg/kg p.o., 2 hours after administration, versus pre-treatment): statistically significant increase in mechanical threshold in both the abdomen and paws area; also recorded: statistical significant reduction of painful hypersensitivity in both the abdominal and plantar surface
mechanical threshold, abdomen and hind paws ([5]; 30 mg/kg p.o., 2 hours after administration, versus pre-treatment): statistically significant increase in mechanical threshold in both the abdomen and paws area
MED ([5]; p.o., acute administration): 3 mg/kg
